The source of these data is patent US20250100972A1, “COMPOUND, RUBBER BLEND CONTAINING THE COMPOUND, VEHICLE TIRE COMPRISING THE RUBBER BLEND IN AT LEAST ONE COMPONENT, PROCESS FOR PRODUCING THE COMPOUND, AND USE OF THE COMPOUND AS AN AGEING PROTECTANT AND/OR ANTIOZONANT AND/OR DYE” (Continental Reifen Deutschland GmbH, priority 2021, published 2025).

The conditions of data set [1]: basic structure compared with aniline; cited from earlier work.
Data set [2] can be described thus: Measurement of oxidation induction time (OIT) by DSC. Type of data set: physicochemical. The note with it: with liquid polyisoprene LIR-50, isothermal 180° C., switch from N2 to O2 atmosphere 50 mL/min, DSC peak; measuring accuracy ± 10 min. How it is done: The compound of formula II) was investigated under laboratory conditions for its potential protective effect as an aging stabilizer by measurement of the oxidation induction time.
To this end the compounds of formula II) and 6-PPD in each case together with a polymer (liquid synthetic polyisoprene (IR), LIR-50, Kuraray, weight average molecular weight distribution Mw=54 000 g/mol, glass transition temperature Tg=−63° C.) were heated at constant temperature (180° C.) until onset of oxidation (start temperature 35° C., heating to 170° C. at a heating rate of 20 K/min (kelvin per minute), heating to 180° C. at a heating rate of 1 K/min; purge gas: nitrogen (N2), volume flow 50 mL/min).
The specimen was isothermally maintained at 180° C. under an N2 atmosphere and the atmosphere was then switched to an O2 atmosphere (volume flow 50 mL/min).
Oxidation was determined via a peak using DSC (differential scanning calorimetry).
The time in minutes to oxidation was measured.
Background: DSC measures the heat that a sample takes up or gives off during a temperature scan.

Take acridinone: the “Genotoxicity / mutagenicity according to safety data sheet” value in data set [1] is reported as “neither genotoxic nor mutagenic”.

Turning to `CC(C)CC(C)Nc1ccc(Nc2ccccc2)cc1` (stereo not drawn) [6-PPD, N-(1,3-dimethylbutyl)-N′-phenyl-p-phenylenediamine], the “Time to oxidation (oxidation induction time)” value in data set [2] was 116 ± 10 min.

Take `CC(C)CC(C)Nc1ccc2[nH]c3ccccc3c(=O)c2c1` (stereo not drawn) [Compound of formula II), 2-(1,3-dimethylbutylamino)-acridine-9(10H)-one]: the “Time to oxidation (oxidation induction time)” value in data set [2] was 259 ± 10 min.
